In ChEMBL document CHEMBL4359918, “Discovery of tissue selective liver X receptor agonists for the treatment of atherosclerosis without causing hepatic lipogenesis” (Eur J Med Chem, 2019):
Activity calls are given as the source filed them. No cut-off for these calls is given here.

How the values were obtained:
[1] = Selectivity index, ratio of compound effect for agonist activity at human LXRalpha to compound effect for agonist activity at […]
PBMC [2] = assay: Anti-atherosclerotic activity in C57BL/6 mouse PBMC assessed as inhibition of ox-LDL induced lipid accumulation at 10 uM incubated for 48 hrs by ORO staining based microscopic analysis; assay type: functional, cell-based
3T3-L1 [3] = assay: Cytotoxicity against mouse 3T3L1 preadipocytes assessed as reduction in cell viability at 2 to 50 uM incubated for 24 hrs by MTT assay; assay type: cell-based; conditions: 3t3-l1, 24 h
3T3-L1 [4] = assay: Anti-adipogenic activity in mouse 3T3L1 preadipocytes assessed as decrease in lipid accumulation by Oil Red O staining-based microscopic analysis; assay type: functional, cell-based
HepG2 [5] = assay: Cytotoxicity against human HepG2 cells assessed as reduction in cell viability at 2 to 50 uM incubated for 24 hrs by MTT assay; assay type: cell-based; conditions: hepg2, 24 h
HEK-293T = assay: Cytotoxicity against HEK293T cells assessed as reduction in cell viability at […] incubated for 24 hrs by MTT assay; assay type: cell-based; conditions: human
RAW264.7 [6] = assay: Anti-atherosclerotic activity in mouse RAW264.7 cells assessed as inhibition of ox-LDL induced lipid accumulation at 10 uM incubated for 48 hrs by ORO staining based microscopic analysis; assay type: functional, cell-based
[7] = Agonist activity at LXR in mouse 3T3L1 preadipocytes assessed as increase in sREBP-1c mRNA expression at 10 uM by qPCR analysis; assay type: cell-based
[8] = target: T1, LXRalpha (Oxysterols receptor LXR-alpha) (Homo sapiens, UniProt Q13133); assay: Agonist activity at human LXRalpha transfected in HEK293T cells at 10 uM incubated for 20 hrs by luciferase reporter gene assay relative to control; assay type: cell-based; conditions: HEK293T cells transfected with human LXRalpha, read-out: FC
T1 sequence (Q13133 whole entry): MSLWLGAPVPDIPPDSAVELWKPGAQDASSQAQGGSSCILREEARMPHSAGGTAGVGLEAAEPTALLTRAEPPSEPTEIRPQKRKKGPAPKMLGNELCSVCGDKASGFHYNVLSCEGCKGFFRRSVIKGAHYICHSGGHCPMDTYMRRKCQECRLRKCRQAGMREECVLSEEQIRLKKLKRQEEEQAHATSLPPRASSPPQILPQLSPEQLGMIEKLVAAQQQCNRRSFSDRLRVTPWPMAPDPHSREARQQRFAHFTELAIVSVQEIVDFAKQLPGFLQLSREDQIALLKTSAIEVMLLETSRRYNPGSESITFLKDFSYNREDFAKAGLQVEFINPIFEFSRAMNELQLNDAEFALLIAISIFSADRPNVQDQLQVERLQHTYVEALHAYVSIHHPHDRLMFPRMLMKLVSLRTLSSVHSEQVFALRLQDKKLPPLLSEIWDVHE

3T3-L1 [9] = assay: Anti-adipogenic activity in mouse 3T3L1 preadipocytes assessed as decrease in triglyceride accumulation; assay type: functional, cell-based
[10] = target: T2, Oxysterols receptor LXR-alpha (Homo sapiens) (UniProt Q13133); assay: Agonist activity at human LXRalpha transfected in HEK293T cells at 10 uM incubated for 20 hrs in presence of LXR antagonist SR9243 by luciferase reporter gene assay relative to control; assay type: cell-based
T2 sequence (whole entry): T1 sequence (Q13133 whole entry)

[11] = Agonist activity at LXR in mouse 3T3L1 preadipocytes assessed as increase in ABCA1 mRNA expression at 10 uM by qPCR analysis; assay type: cell-based
RAW264.7 [12] = assay: Cytotoxicity against mouse RAW264.7 cells assessed as reduction in cell viability at 2 to 50 µM incubated for 24 hrs by MTT assay; assay type: cell-based; conditions: raw264.7, 24 h
Mus musculus [13] = species: Mus musculus; assay: Agonist activity at LXR in C57BL/6 mouse PBMC assessed as increase in ABCA1 mRNA expression at 10 uM incubated for 48 hrs by qPCR analysis
[14] = target: T3, Oxysterols receptor LXR-beta (Rattus norvegicus) (UniProt Q62755); assay: Agonist activity at rat LXRbeta transfected in HEK293T cells at 10 uM incubated for 20 hrs by luciferase reporter gene assay relative to control; assay type: cell-based
T3 sequence (whole entry): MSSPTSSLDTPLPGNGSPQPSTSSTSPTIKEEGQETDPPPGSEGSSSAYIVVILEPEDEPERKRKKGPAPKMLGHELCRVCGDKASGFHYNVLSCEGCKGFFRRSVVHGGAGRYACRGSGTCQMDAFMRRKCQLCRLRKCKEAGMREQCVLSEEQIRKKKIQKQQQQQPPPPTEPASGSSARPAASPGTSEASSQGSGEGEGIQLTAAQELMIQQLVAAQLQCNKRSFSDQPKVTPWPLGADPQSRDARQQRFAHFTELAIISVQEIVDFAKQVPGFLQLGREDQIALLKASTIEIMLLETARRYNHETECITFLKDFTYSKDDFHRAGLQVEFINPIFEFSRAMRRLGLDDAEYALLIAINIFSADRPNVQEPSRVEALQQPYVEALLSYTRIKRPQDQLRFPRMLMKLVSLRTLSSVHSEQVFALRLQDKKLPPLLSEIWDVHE

RAW264.7 [15] = assay: Agonist activity at LXR in mouse RAW264.7 cells assessed as increase in ABCA1 mRNA expression at 10 uM incubated for 48 hrs by qPCR analysis; assay type: cell-based
HepG2 [16] = assay: Effect on TG accumulation in human HepG2 cells at 10 uM incubated for 24 hrs; assay type: ADME, cell-based; conditions: hepg2, 24 h
[17] = target: Liver X receptor (Homo sapiens) (UniProt Q13133+P55055); assay: Agonist activity at LXR in human HepG2 cells assessed as increase in ABCA1 mRNA expression at 10 uM incubated for 24 hrs by qPCR analysis; assay type: cell-based
HepG2 [18] = assay: Lipid lowering activity in human HepG2 cells assessed as decrease in OA-induced TG accumulation at 10 uM incubated for 24 hrs; assay type: functional, cell-based
Mus musculus [19] = assay: Anti-atherosclerotic activity in high fat diet-induced C57BL/6 mouse model of hypercholesterolemia assessed as increase in ABCG1 mRNA expression in small intestine at 10 to 40 mg/kg, po administered for 12 weeks by RT-qPCR analysis; assay type: functional, organism-based
Mus musculus [20] = assay: Induction of hepatic steatosis in C57BL/6 mouse assessed as accumulation of serum triglyceride level at 50 mg/kg/day, ig administered for 7 days; assay type: organism-based; conditions: in vivo, po, 168 h
PBMC [21] = assay: Effect on LXR mRNA expression in C57BL/6 mouse PBMC at 10 uM incubated for 48 hrs by qPCR analysis; assay type: cell-based
Mus musculus [22] = assay: Anti-atherosclerotic activity in high fat diet-induced C57BL/6 mouse model of hypercholesterolemia assessed as reduction in ALT level at 10 to 40 mg/kg, po administered for 12 weeks; assay type: functional, organism-based
[23] = Agonist activity at LXR in C57BL/6 mouse PBMC assessed as increase in sREBP-1c mRNA expression at 10 uM incubated for 48 hrs by qPCR analysis
RAW264.7 [24] = assay: Inhibition of macrophage foam cell formation in mouse RAW264.7 cells assessed as reduction in ox-LDL induced total cholesterol level at 10 uM measured after 48 hrs; assay type: functional, cell-based
Mus musculus [25] = assay: Anti-atherosclerotic activity in high fat diet-induced C57BL/6 mouse model of hypercholesterolemia assessed as increase in ABCG5 mRNA expression in ileum at 10 to 40 mg/kg, po administered for 12 weeks by RT-qPCR analysis; assay type: functional, organism-based
Mus musculus [26] = assay: Anti-atherosclerotic activity in high fat diet-induced C57BL/6 mouse model of hypercholesterolemia assessed as increase in ABCG8 mRNA expression in ileum at 10 to 40 mg/kg, po administered for 12 weeks by RT-qPCR analysis; assay type: functional, organism-based
[27] = Agonist activity at LXR in mouse RAW264.7 cells assessed as increase in sREBP-1c mRNA expression at 10 uM incubated for 48 hrs by qPCR analysis; assay type: cell-based; conditions: raw264.7, 48 h
Mus musculus [28] = assay: Anti-atherosclerotic activity in high fat diet-induced C57BL/6 mouse model of hypercholesterolemia assessed as increase in ABCG5 mRNA expression in liver at 10 to 40 mg/kg, po administered for 12 weeks by RT-qPCR analysis; assay type: functional, organism-based
Mus musculus [29] = assay: Anti-atherosclerotic activity in high fat diet-induced C57BL/6 mouse model of hypercholesterolemia assessed as reduction in liver weight at 10 to 40 mg/kg, po administered for 12 weeks by H and E staining-based assay; assay type: functional, organism-based
Mus musculus [30] = assay: Anti-atherosclerotic activity in high fat diet-induced C57BL/6 mouse model of hypercholesterolemia assessed as increase in ABCA1 mRNA expression in small intestine at 10 to 40 mg/kg, po administered for 12 weeks by RT-qPCR analysis; assay type: functional, organism-based
Mus musculus [31] = assay: Anti-atherosclerotic activity in high fat diet-induced C57BL/6 mouse model of hypercholesterolemia assessed as reduction in hepatic triglyceride level at 10 to 40 mg/kg, po administered for 12 weeks; assay type: functional, organism-based
Mus musculus [32] = assay: Induction of hepatic steatosis in C57BL/6 mouse assessed as effect on serum LDL-C at 50 mg/kg/day, ig administered for 7 days; assay type: organism-based; conditions: in vivo, po, 168 h
Mus musculus [33] = assay: Anti-atherosclerotic activity in high fat diet-induced C57BL/6 mouse model of hypercholesterolemia assessed as increase in ABCG8 mRNA expression in liver at 10 to 40 mg/kg, po administered for 12 weeks by RT-qPCR analysis; assay type: functional, organism-based
Mus musculus [34] = assay: Anti-atherosclerotic activity in high fat diet-induced C57BL/6 mouse model of hypercholesterolemia assessed as reduction in serum total cholesterol level at 10 to 40 mg/kg, po administered for 12 weeks; assay type: functional, organism-based
Mus musculus [35] = assay: Anti-atherosclerotic activity in high fat diet-induced C57BL/6 mouse model of hypercholesterolemia assessed as reduction in hepatic total cholesterol level at 10 to 40 mg/kg, po administered for 12 weeks; assay type: functional, organism-based
Mus musculus [36] = assay: Anti-atherosclerotic activity in high fat diet-induced C57BL/6 mouse model of hypercholesterolemia assessed as decrease in SCD1 mRNA expression in liver at 10 to 40 mg/kg, po administered for 12 weeks by RT-qPCR analysis; assay type: functional, organism-based
Mus musculus [37] = assay: Anti-atherosclerotic activity in high fat diet-induced C57BL/6 mouse model of hypercholesterolemia assessed as decrease in sREBP-1c mRNA expression in liver at 10 to 40 mg/kg, po administered for 12 weeks by RT-qPCR analysis; assay type: functional, organism-based
Mus musculus [38] = assay: Anti-atherosclerotic activity in high fat diet-induced C57BL/6 mouse model of hypercholesterolemia assessed as reduction in liver fat administered orally for 12 weeks by ORO staining based microscopic analysis; assay type: functional, organism-based
RAW264.7 [39] = assay: Effect on LXR mRNA expression in mouse RAW264.7 cells at 10 uM incubated for 48 hrs by qPCR analysis; assay type: cell-based; conditions: raw264.7, 48 h
Mus musculus [40] = assay: Anti-atherosclerotic activity in high fat diet-induced C57BL/6 mouse model of hypercholesterolemia assessed as decrease in ACC mRNA expression in liver at 10 to 40 mg/kg, po administered for 12 weeks by RT-qPCR analysis; assay type: functional, organism-based
Mus musculus [41] = assay: Anti-atherosclerotic activity in high fat diet-induced C57BL/6 mouse model of hypercholesterolemia assessed as increase in CYP7A1 mRNA expression in liver at 10 to 40 mg/kg, po administered for 12 weeks by RT-qPCR analysis; assay type: functional, organism-based

Chain of Liver X receptor (Homo sapiens) (P55055 whole entry, looked up, one chain of several): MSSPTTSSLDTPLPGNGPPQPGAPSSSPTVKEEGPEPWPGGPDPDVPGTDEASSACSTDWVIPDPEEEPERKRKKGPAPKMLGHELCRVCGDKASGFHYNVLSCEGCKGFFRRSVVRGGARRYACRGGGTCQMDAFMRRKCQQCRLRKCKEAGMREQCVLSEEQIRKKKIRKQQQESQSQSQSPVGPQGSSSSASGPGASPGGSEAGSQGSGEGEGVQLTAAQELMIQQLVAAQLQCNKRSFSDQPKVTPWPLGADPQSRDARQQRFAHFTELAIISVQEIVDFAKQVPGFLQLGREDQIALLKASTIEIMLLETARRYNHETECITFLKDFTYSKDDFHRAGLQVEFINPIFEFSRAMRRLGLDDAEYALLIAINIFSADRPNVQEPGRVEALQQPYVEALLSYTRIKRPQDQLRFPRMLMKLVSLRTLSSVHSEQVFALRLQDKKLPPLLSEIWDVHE

CC(C)C(=O)CC[C@@H](C)[C@H]1CC[C@H]2[C@@H]3CC=C4C[C@@H](O)CC[C@]4(C)[C@H]3CC[C@]12C
Ratio [1]: 1.63
inhibition (PBMC [2]): Active
Activity (3T3-L1 [3]): Non-Toxic
Activity (3T3-L1 [4]): Active
Activity (HepG2 [5]): Non-Toxic
Activity (HEK-293T): Non-Toxic
inhibition (RAW264.7 [6]): Active
Activity [7]: Not Active
fold induction at 20 h, 10 µM [8]: 2.36
Activity (3T3-L1 [9]): Active
Activity [10]: inactive
Activity [11]: Active
Activity (RAW264.7 [12]): Non-Toxic
Activity (Mus musculus [13]): Active
fold change (FC) [14]: 3.85
Activity (RAW264.7 [15]): Active
Activity (HepG2 [16]): Non-Toxic
Activity [17]: Active
Activity (HepG2 [18]): Active

CC(C)C(=O)CC[C@@H](C)[C@H]1CC[C@H]2[C@@H]3C[C@H](O)[C@H]4C[C@H](O)CC[C@]4(C)[C@H]3CC[C@]12C
Activity (Mus musculus [19]): Active
Activity (Mus musculus [20]): Non-Toxic
Activity (PBMC [21]): Non-Toxic
Ratio [1]: 1
Activity (Mus musculus [22]): Active
inhibition (PBMC [2]): Active
Activity [23]: Active
Activity (3T3-L1 [3]): Non-Toxic
inhibition (RAW264.7 [24]): Active
Activity (3T3-L1 [4]): inactive
Activity (Mus musculus [25]): Active
Activity (HepG2 [5]): Non-Toxic
Activity (HEK-293T): Non-Toxic
Activity (Mus musculus [26]): Active
Activity [27]: Not Active
Activity (Mus musculus [28]): Active
Activity (Mus musculus [29]): Active
Activity (Mus musculus [30]): Active
Activity (Mus musculus [31]): Active
inhibition (RAW264.7 [6]): Active
fold induction at 20 h, 10 µM [8]: 4.27
Activity (3T3-L1 [9]): inactive
Activity [10]: inactive
Activity [11]: Active
Activity (Mus musculus [32]): Non-Toxic
Activity (RAW264.7 [12]): Non-Toxic
Activity (Mus musculus [33]): Active
Activity (Mus musculus [34]): Active
Activity (Mus musculus [13]): Active
fold change (FC) [14]: 4.27
Activity (RAW264.7 [15]): Active
Activity (Mus musculus [35]): Active
Activity (Mus musculus [36]): Active
Activity (Mus musculus [37]): Active
Activity (Mus musculus [38]): Dose-dependent effect
Activity (RAW264.7 [39]): Non-Toxic
Activity (HepG2 [16]): Non-Toxic
Activity [17]: Active
Activity (HepG2 [18]): Active
Activity (Mus musculus [40]): Active
Activity (Mus musculus [41]): Active
